# Source: PubChem BioAssay (NCI)
#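 Following 48 hours of exposure in 96-well plates, responses at five concentrations were used to interpolate endpoints linearly. Definition used: TGI = concentration required for complete inhibition of growth.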
# What was measured:
# Experiment in all cases: inhibition of tumour cell growth, NCI panel, 48 h
# 786-0 renal = test system: 786-0 renal
# A498 renal = test system: A498 renal
# A549 NSCLC = test system: A549 NSCLC
# ACHN renal = test system: ACHN renal
# BT-549 breast = test system: BT-549 breast
# CAKI-1 renal = test system: CAKI-1 renal
# CCRF-CEM leukemia = test system: CCRF-CEM leukemia
# COLO 205 colon = test system: COLO 205 colon
# DU-145 prostate = test system: DU-145 prostate
# EKVX NSCLC = test system: EKVX NSCLC
# HCC-2998 colon = test system: HCC-2998 colon
# HCT-116 colon = test system: HCT-116 colon
# HCT-15 colon = test system: HCT-15 colon
# HL-60(TB) leukemia = test system: HL-60(TB) leukemia
# HOP-62 NSCLC = test system: HOP-62 NSCLC
# HOP-92 NSCLC = test system: HOP-92 NSCLC
# HS 578T breast = test system: HS 578T breast
# HT29 colon = test system: HT29 colon
# IGROV1 ovarian = test system: IGROV1 ovarian
# K-562 leukemia = test system: K-562 leukemia
# KM12 colon = test system: KM12 colon
# LOX IMVI melanoma = test system: LOX IMVI melanoma
# M14 melanoma = test system: M14 melanoma
# MALME-3M melanoma = test system: MALME-3M melanoma
# MCF7 breast = test system: MCF7 breast
# MDA-MB-231 breast = test system: MDA-MB-231 breast
# MDA-MB-435 = test system: MDA-MB-435
# MDA-N = test system: MDA-N
# MOLT-4 leukemia = test system: MOLT-4 leukemia
# NCI-H226 lung = test system: NCI-H226 lung
# NCI-H23 lung = test system: NCI-H23 lung
# NCI-H460 lung = test system: NCI-H460 lung
# NCI-H522 lung = test system: NCI-H522 lung
# NCI/ADR-RES ovarian = test system: NCI/ADR-RES ovarian
# OVCAR-3 ovarian = test system: OVCAR-3 ovarian
# OVCAR-4 ovarian = test system: OVCAR-4 ovarian
# OVCAR-5 ovarian = test system: OVCAR-5 ovarian
# OVCAR-8 ovarian = test system: OVCAR-8 ovarian
# PC-3 prostate = test system: PC-3 prostate
# RPMI-8226 leukemia = test system: RPMI-8226 leukemia
# RXF 393 renal = test system: RXF 393 renal
# SF-268 CNS = test system: SF-268 CNS
# SF-295 CNS = test system: SF-295 CNS
# SF-539 CNS = test system: SF-539 CNS
# SK-MEL-2 melanoma = test system: SK-MEL-2 melanoma
# SK-MEL-28 melanoma = test system: SK-MEL-28 melanoma
# SK-MEL-5 melanoma = test system: SK-MEL-5 melanoma
# SK-OV-3 ovarian = test system: SK-OV-3 ovarian
# SN12C renal = test system: SN12C renal
# SNB-19 CNS = test system: SNB-19 CNS
# SNB-75 CNS = test system: SNB-75 CNS
# SR leukemia = test system: SR leukemia
# SW-620 colon = test system: SW-620 colon
# T-47D breast = test system: T-47D breast
# TK-10 renal = test system: TK-10 renal
# U251 CNS = test system: U251 CNS
# UACC-257 melanoma = test system: UACC-257 melanoma
# UACC-62 melanoma = test system: UACC-62 melanoma
# UO-31 renal = test system: UO-31 renal
smiles,measurement,setting,value
CCC(C)NC(=S)N/N=C(\C)c1nc2ncccc2[nH]1 (configuration not stated),TGI,786-0 renal,> 100 µM
same,TGI,A498 renal,> 100 µM
same,TGI,A549 NSCLC,> 100 µM
same,TGI,ACHN renal,> 100 µM
same,TGI,BT-549 breast,> 72.3 µM
same,TGI,CAKI-1 renal,49.4 µM
same,TGI,CCRF-CEM leukemia,38.7 µM
same,TGI,COLO 205 colon,> 100 µM
same,TGI,DU-145 prostate,> 100 µM
same,TGI,EKVX NSCLC,> 100 µM
same,TGI,HCC-2998 colon,> 100 µM
same,TGI,HCT-116 colon,> 100 µM
same,TGI,HCT-15 colon,> 100 µM
same,TGI,HL-60(TB) leukemia,> 100 µM
same,TGI,HOP-62 NSCLC,> 100 µM
same,TGI,HOP-92 NSCLC,44.6 µM
same,TGI,HS 578T breast,> 100 µM
same,TGI,HT29 colon,> 100 µM
same,TGI,IGROV1 ovarian,> 100 µM
same,TGI,K-562 leukemia,> 100 µM
same,TGI,KM12 colon,> 100 µM
same,TGI,LOX IMVI melanoma,> 100 µM
same,TGI,M14 melanoma,62.6 µM
same,TGI,MALME-3M melanoma,> 100 µM
same,TGI,MCF7 breast,> 100 µM
same,TGI,MDA-MB-231 breast,> 100 µM
same,TGI,MDA-MB-435,> 100 µM
same,TGI,MDA-N,> 100 µM
same,TGI,MOLT-4 leukemia,46.6 µM
same,TGI,NCI-H226 lung,38.7 µM
same,TGI,NCI-H23 lung,> 100 µM
same,TGI,NCI-H460 lung,> 100 µM
same,TGI,NCI-H522 lung,> 100 µM
same,TGI,NCI/ADR-RES ovarian,> 79.5 µM
same,TGI,OVCAR-3 ovarian,> 100 µM
same,TGI,OVCAR-4 ovarian,> 73 µM
same,TGI,OVCAR-5 ovarian,> 84 µM
same,TGI,OVCAR-8 ovarian,> 100 µM
same,TGI,PC-3 prostate,> 100 µM
same,TGI,RPMI-8226 leukemia,> 100 µM
same,TGI,RXF 393 renal,> 75.6 µM
same,TGI,SF-268 CNS,> 88.4 µM
same,TGI,SF-295 CNS,> 100 µM
same,TGI,SF-539 CNS,70.5 µM
same,TGI,SK-MEL-2 melanoma,> 100 µM
same,TGI,SK-MEL-28 melanoma,> 100 µM
same,TGI,SK-MEL-5 melanoma,28.6 µM
same,TGI,SK-OV-3 ovarian,> 69.9 µM
same,TGI,SN12C renal,> 100 µM
same,TGI,SNB-19 CNS,97.8 µM
same,TGI,SNB-75 CNS,> 100 µM
same,TGI,SR leukemia,> 85.6 µM
same,TGI,SW-620 colon,> 100 µM
same,TGI,T-47D breast,> 56.7 µM
same,TGI,TK-10 renal,> 100 µM
same,TGI,U251 CNS,> 100 µM
same,TGI,UACC-257 melanoma,> 100 µM
same,TGI,UACC-62 melanoma,79.7 µM
same,TGI,UO-31 renal,11.6 µM
N#CC1CCCC2SC(F)(F)C(F)(F)C12 (configuration not stated),TGI,786-0 renal,> 100 µM
same,TGI,A498 renal,> 100 µM
same,TGI,A549 NSCLC,> 100 µM
same,TGI,ACHN renal,> 100 µM
same,TGI,BT-549 breast,> 100 µM
same,TGI,CAKI-1 renal,> 100 µM
same,TGI,CCRF-CEM leukemia,> 66.7 µM
same,TGI,COLO 205 colon,> 100 µM
same,TGI,DU-145 prostate,> 100 µM
same,TGI,EKVX NSCLC,> 100 µM
same,TGI,HCC-2998 colon,> 100 µM
same,TGI,HCT-116 colon,> 100 µM
same,TGI,HCT-15 colon,> 100 µM
same,TGI,HL-60(TB) leukemia,54.9 µM
same,TGI,HOP-62 NSCLC,> 100 µM
same,TGI,HOP-92 NSCLC,> 100 µM
same,TGI,HS 578T breast,> 100 µM
same,TGI,HT29 colon,> 100 µM
same,TGI,IGROV1 ovarian,> 100 µM
same,TGI,K-562 leukemia,> 78.3 µM
same,TGI,KM12 colon,> 100 µM
same,TGI,LOX IMVI melanoma,> 100 µM
same,TGI,M14 melanoma,> 100 µM
same,TGI,MALME-3M melanoma,> 100 µM
same,TGI,MCF7 breast,> 100 µM
same,TGI,MDA-MB-231 breast,> 100 µM
same,TGI,MDA-MB-435,> 100 µM
same,TGI,MDA-N,> 100 µM
same,TGI,MOLT-4 leukemia,99.3 µM
same,TGI,NCI-H226 lung,> 100 µM
same,TGI,NCI-H23 lung,> 100 µM
same,TGI,NCI-H460 lung,> 100 µM
same,TGI,NCI-H522 lung,> 100 µM
same,TGI,NCI/ADR-RES ovarian,> 100 µM
same,TGI,OVCAR-3 ovarian,> 100 µM
same,TGI,OVCAR-4 ovarian,> 100 µM
same,TGI,OVCAR-5 ovarian,> 100 µM
same,TGI,OVCAR-8 ovarian,> 100 µM
same,TGI,PC-3 prostate,> 100 µM
same,TGI,RPMI-8226 leukemia,> 100 µM
same,TGI,RXF 393 renal,> 100 µM
same,TGI,SF-268 CNS,> 100 µM
same,TGI,SF-295 CNS,> 100 µM
same,TGI,SF-539 CNS,> 100 µM
same,TGI,SK-MEL-2 melanoma,> 100 µM
same,TGI,SK-MEL-28 melanoma,> 100 µM
same,TGI,SK-MEL-5 melanoma,> 100 µM
same,TGI,SK-OV-3 ovarian,> 100 µM
same,TGI,SN12C renal,> 100 µM
same,TGI,SNB-19 CNS,> 100 µM
same,TGI,SNB-75 CNS,> 100 µM
same,TGI,SR leukemia,72.7 µM
same,TGI,SW-620 colon,> 100 µM
same,TGI,T-47D breast,> 100 µM
same,TGI,TK-10 renal,> 100 µM
same,TGI,U251 CNS,> 100 µM
same,TGI,UACC-257 melanoma,> 100 µM
same,TGI,UACC-62 melanoma,> 100 µM
same,TGI,UO-31 renal,> 100 µM
Cc1[nH]n(-c2ncc(C(=O)O)c(=O)[nH]2)c(=O)c1CCO,TGI,786-0 renal,> 100 µM
same,TGI,A498 renal,> 100 µM
same,TGI,A549 NSCLC,> 100 µM
same,TGI,ACHN renal,> 100 µM
same,TGI,BT-549 breast,> 100 µM
same,TGI,CAKI-1 renal,> 100 µM
same,TGI,CCRF-CEM leukemia,> 100 µM
same,TGI,COLO 205 colon,> 100 µM
same,TGI,DU-145 prostate,> 100 µM
same,TGI,EKVX NSCLC,> 100 µM
same,TGI,HCC-2998 colon,> 100 µM
same,TGI,HCT-116 colon,> 100 µM
same,TGI,HCT-15 colon,> 100 µM
same,TGI,HL-60(TB) leukemia,> 100 µM
same,TGI,HOP-62 NSCLC,> 100 µM
same,TGI,HOP-92 NSCLC,> 100 µM
same,TGI,HS 578T breast,> 100 µM
same,TGI,HT29 colon,> 100 µM
same,TGI,IGROV1 ovarian,> 100 µM
same,TGI,K-562 leukemia,> 100 µM
same,TGI,KM12 colon,> 100 µM
same,TGI,LOX IMVI melanoma,> 100 µM
same,TGI,M14 melanoma,> 100 µM
same,TGI,MALME-3M melanoma,> 100 µM
same,TGI,MCF7 breast,> 100 µM
same,TGI,MDA-MB-231 breast,> 100 µM
same,TGI,MDA-MB-435,> 100 µM
same,TGI,MDA-N,> 100 µM
same,TGI,MOLT-4 leukemia,> 100 µM
same,TGI,NCI-H226 lung,> 100 µM
same,TGI,NCI-H23 lung,> 100 µM
same,TGI,NCI-H460 lung,> 100 µM
same,TGI,NCI-H522 lung,> 100 µM
same,TGI,NCI/ADR-RES ovarian,> 100 µM
same,TGI,OVCAR-3 ovarian,> 100 µM
same,TGI,OVCAR-4 ovarian,> 100 µM
same,TGI,OVCAR-5 ovarian,> 100 µM
same,TGI,OVCAR-8 ovarian,> 100 µM
same,TGI,PC-3 prostate,> 100 µM
same,TGI,RPMI-8226 leukemia,> 100 µM
same,TGI,RXF 393 renal,> 100 µM
same,TGI,SF-268 CNS,> 100 µM
same,TGI,SF-295 CNS,> 100 µM
same,TGI,SF-539 CNS,> 100 µM
same,TGI,SK-MEL-2 melanoma,> 100 µM
same,TGI,SK-MEL-28 melanoma,> 100 µM
same,TGI,SK-MEL-5 melanoma,> 100 µM
same,TGI,SK-OV-3 ovarian,> 100 µM
same,TGI,SN12C renal,> 100 µM
same,TGI,SNB-19 CNS,> 100 µM
same,TGI,SNB-75 CNS,> 100 µM
same,TGI,SR leukemia,> 100 µM
same,TGI,SW-620 colon,> 100 µM
same,TGI,T-47D breast,> 100 µM
same,TGI,TK-10 renal,> 100 µM
same,TGI,U251 CNS,> 100 µM
same,TGI,UACC-257 melanoma,> 100 µM
same,TGI,UACC-62 melanoma,> 100 µM
same,TGI,UO-31 renal,> 100 µM
